# According to patent publication US6497898B1, “Surfactant, and an emulsion-type cosmetic composition and a lipsome containing said surfactant” (Kanebo LTD, priority 1993, dated 2002):
# Test system: skin
# Assay: Safety test: skin irritation patch test of the surfactants
# Type: in vivo
# Details: Sample (solution) per table head; patch on 20 subjects for 24 hours, evaluated 24 hours after removing; clear erythema = positive
# Experimental: As a safety test on the above trehalose-6-fatty acid esters, irritation to skin was examinaed in accordance with the following procedures.
# […] Irritaion was evaluated 24 hours after removing the patch. […] Sodium laurylphosphate used as a control is a surfactant which is usually used in shampoos, body shampoos and the like.
row,Compound,"Irritation to skin, positive, % [%]"
1,"C=CCCCCCCCCC(=O)OCC1OC(OC2OC(CO)C(O)C(O)C2O)C(O)C(O)C1O (stereo not shown) [6-(10-Undecylenyl)-trehalose, 6-(10-undecylenyl)-trehalose]",0
2,"CCCCCCCCCCCC(=O)OCC1OC(OC2OC(CO)C(O)C(O)C2O)C(O)C(O)C1O (stereo not shown) [6-Lauroyl-trehalose, 6-lauroyl-trehalose]",0
3,"CCCCCCCCCCCCCCCCCC(=O)OC[C@H]1O[C@H](O[C@H]2O[C@H](CO)[C@@H](O)[C@H](O)[C@H]2O)[C@H](O)[C@@H](O)[C@@H]1O [6-Stearoyl-trehalose, 6-stearoyl-trehalose]",0
4,"CCCCCCCCCCCCOP(=O)([O-])O.[Na+] [Monosodium lauryl phosphate, reference compound]",0.5
